This note sets out measurements from US7485641B2, “Substituted 3-amino-pyrrolidino-4-lactams” (Pfizer, Inc., priority 2006, dated 2009).

For this experiment, the target named is T1, DPP-IV (Homo sapiens, UniProt P27487).
T1 construct: purchased Enzyme Systems Products SPE-01
The experiment is described as follows: In vitro assay for dipeptidyl peptidase inhibition. The class given is biochemical. Conditions: for inhibition at 0.3 µM: read-out: DPP-IV Percent Inhibition at 300 nM.

Where [1] appears, read: n-value given in brackets, read-out: DPP-IV IC50.
Setting [2] is: at 300 nM, n-value given in brackets.

Structures can show the parent of a compound that is named as a salt. Where two headings read alike, the source gives them in different places.

T1 sequence (P27487 whole entry, species assumed): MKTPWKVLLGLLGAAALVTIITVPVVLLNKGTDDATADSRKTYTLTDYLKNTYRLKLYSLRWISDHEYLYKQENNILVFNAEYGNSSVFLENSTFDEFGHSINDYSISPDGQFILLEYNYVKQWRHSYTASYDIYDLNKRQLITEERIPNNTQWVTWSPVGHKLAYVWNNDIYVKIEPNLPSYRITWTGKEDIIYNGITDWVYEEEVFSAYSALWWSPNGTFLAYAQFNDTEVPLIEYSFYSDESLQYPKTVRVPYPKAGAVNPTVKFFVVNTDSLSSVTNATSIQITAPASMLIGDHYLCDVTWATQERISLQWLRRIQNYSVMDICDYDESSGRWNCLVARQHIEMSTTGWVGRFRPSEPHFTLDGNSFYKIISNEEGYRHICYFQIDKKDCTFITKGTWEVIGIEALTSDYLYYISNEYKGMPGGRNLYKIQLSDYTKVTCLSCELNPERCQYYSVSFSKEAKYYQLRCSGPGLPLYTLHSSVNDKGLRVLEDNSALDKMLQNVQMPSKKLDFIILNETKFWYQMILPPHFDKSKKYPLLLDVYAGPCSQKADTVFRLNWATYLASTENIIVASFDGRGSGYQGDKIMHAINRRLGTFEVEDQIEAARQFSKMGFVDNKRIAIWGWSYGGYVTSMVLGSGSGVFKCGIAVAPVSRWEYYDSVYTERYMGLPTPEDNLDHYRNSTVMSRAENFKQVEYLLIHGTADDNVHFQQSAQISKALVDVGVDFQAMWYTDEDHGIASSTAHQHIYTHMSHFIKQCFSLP

Turning to `N[C@H]1CN(c2ncnc3cc(Oc4ccccc4)ccc23)C[C@@H]1N1CCCCC1=O` [Example 113, 1-((3S,4S)-4-amino-1-(7-phenoxyquinazolin-4-yl)pyrrolidin-3-yl)piperidin-2-one], under setting [1], the IC50 was 72.5 nM. As for `COC1(C)CCN(c2ncnc(N3C[C@H](N)[C@@H](N4CCCCC4=O)C3)n2)CC1.O=C(O)C(F)(F)F` [Example 36, 1-((3S,4S)-4-Amino-1-(4-(4-methoxy-4-methylpiperidin-1-yl)-1,3,5-triazin-2-yl)pyrrolidin-3-yl)piperidin-2-onetrifluoroacetate], the “DPP-IV Percent Inhibition at 300 nM” value under setting [2] is 22.2%(4). In the case of `N[C@H]1CN(c2ncnc(N3CCc4ccccc4C3)n2)C[C@@H]1N1CCCCC1=O` [Example 56, 1-{(3S,4S)-4-Amino-1-[4-(3,4-dihydro-1H-isoquinolin-2-yl)-[1,3,5]triazin-2-yl]-pyrrolidin-3-yl}-piperidin-2-onetrifluoroacetate], under setting [1], the IC50 was 85.3 nM. Turning to `N[C@H]1CN(c2cc(N3CC[C@H](F)C3)ncn2)C[C@@H]1N1CC(F)(F)CCC1=O` [Example 23, 1-((3S,4S)-4-amino-1-(6-((S)-3-fluoropyrrolidin-1-yl)pyrimidin-4-yl)pyrrolidin-3-yl)-5,5-difluoropiperidin-2-one], the IC50 under setting [1] was determined as 12 nM. The same measure, in the same setting: in the case of `N[C@H]1CN(c2ncnc(N3Cc4ccccc4C3)n2)C[C@@H]1N1CCCCC1=O` [Example 51, 1-{(3S,4S)-4-Amino-1-[4-(1,3-dihydro-isoindol-2-yl)-[1,3,5]triazin-2-yl]-pyrrolidin-3-yl}-piperidin-2-onetrifluoroacetate] it was 48.3 nM; in that of `N[C@H]1CN(c2ncnc(N3Cc4ccccc4C3)n2)C[C@@H]1N1CC(F)(F)CCC1=O` [Example 50, 1-{(3S,4S)-4-amino-1-[4-(1,3-dihydro-isoindol-2-yl)-[1,3,5]triazin-2-yl]-pyrrolidin-3-yl}-5,5-difluoro-piperidin-2-one], 19.2 nM. Take `N[C@H]1CN(c2cc(OC3CCCC3)ncn2)C[C@@H]1N1CCCCC1=O` [Example 91, 1-((3S,4S)-4-Amino-1-(6-(cyclopentyloxy)pyrimidin-4-yl)pyrrolidin-3-yl)piperidin-2-onetrifluoroacetate]: under setting [2], the inhibition at 0.3 µM was found to be 32.2%.

`N[C@H]1CN(c2ncnc(N3CCCC3)n2)C[C@@H]1N1CCCCC1=O` [Example 32, 1-((3S,4S)-4-Amino-1-(4-(pyrrolidin-1-yl)-1,3,5-triazin-2-yl)pyrrolidin-3-yl)piperidin-2-onetrifluoroacetate]: under setting [1], the IC50 is 91.5 nM.

With `N[C@H]1CN(c2ncnc(N3CCCCC3)n2)C[C@@H]1N1CCCCC1=O` [Example 47, 1-[(3S,4S)-4-Amino-1-(4-piperidin-1-yl-[1,3,5]triazin-2-yl)-pyrrolidin-3-yl]-piperidin-2-onetrifluoroacetate], the IC50 under setting [1] was determined as 315 nM. On to `CCCc1nc(N2C[C@H](N)[C@@H](N3CCCCC3=O)C2)cc(N2CCC(F)(F)C2)n1` [Example 18, 1-((3S,4S)-4-amino-1-(6-(3,3-difluoropyrrolidin-1-yl)-2-propylpyrimidin-4-yl)pyrrolidin-3-yl)piperidin-2-oneformate], for which the IC50 under setting [1] was found to be 43.3 nM. The same measure, in the same setting: in the case of `N[C@H]1CN(c2cc(N3CCC(F)(F)C3)ncn2)C[C@@H]1N1CCCCC1=O` [Example 10, 1-((3S,4S)-4-Amino-1-(6-(3,3-difluoropyrrolidin-1-yl)pyrimidin-4-yl)pyrrolidin-3-yl)piperidin-2-onedihydrochloride] it was 25.5 nM; in that of `N[C@H]1CN(c2ncnc3cc(O)ccc23)C[C@@H]1N1CCCCC1=O` [Example 123, 1-((3S,4S)-4-amino-1-(7-hydroxyquinazolin-4-yl)pyrrolidin-3-yl)piperidin-2-one trifluoroacetate], 113 nM. The same measure, in the same setting: under `CO[C@@H]1CCN(c2ncnc(N3C[C@H](N)[C@@H](N4CCCCC4=O)C3)n2)C1` [Example 39, 1-((3S,4S)-4-Amino-1-(4-((R)-3-methoxypyrrolidin-1-yl)-1,3,5-triazin-2-yl)pyrrolidin-3-yl)piperidin-2-onetrifluoroacetate] stands 325 nM. The same measure, in the same setting: under `N[C@H]1CN(c2ncnc(N3CCC(F)(F)C3)c2F)C[C@@H]1N1CCCCC1=O` [Example 21, 1-((3S,4S)-4-amino-1-(6-(3,3-difluoropyrrolidin-1-yl)-5-fluoropyrimidin-4-yl)pyrrolidin-3-yl)piperidin-2-one] stands 218 nM. In the case of `N[C@H]1CN(c2ncnc(NC3CCCCC3)n2)C[C@@H]1N1CCCCC1=O` [Example 75, 1-[(3S,4S)-4-Amino-1-(4-cyclohexylamino-[1,3,5]triazin-2-yl)-pyrrolidin-3-yl]-piperidin-2-onetrifluoroacetate], the IC50 under setting [1] stood at 169 nM. On the same count and under the same terms, in the case of `N[C@H]1CN(c2cc(N3Cc4ccccc4C3)ncn2)C[C@@H]1N1CCCC1=O` [Example 52, 1-((3S,4S)-4-Amino-1-(6-(isoindolin-2-yl)pyrimidin-4-yl)pyrrolidin-3-yl)pyrrolidin-2-onehydrochloride] it was 176 nM; in that of `N[C@H]1CN(c2cc(-c3ccccc3)ncn2)C[C@@H]1N1CC(F)(F)CCC1=O` [Example 82, 1-((3S,4S)-4-amino-1-(6-phenylpyrimidin-4-yl)pyrrolidin-3-yl)-5,5-difluoropiperidin-2-one trifluoroacetate], 28.8 nM. The same measure, in the same setting: under `N[C@H]1CN(c2ncnc3cc(C4CCCC4)ccc23)C[C@@H]1N1CCCCC1=O` [Example 111, 1-((3S,4S)-4-amino-1-(7-cyclopentylquinazolin-4-yl)pyrrolidin-3-yl)piperidin-2-one] stands 228 nM. On to `N[C@H]1CN(C(=O)c2cc3cc(Cl)ccc3o2)C[C@@H]1N1CCCCC1=O` [Example 157, 1-((3S,4S)-4-amino-1-(5-chlorobenzofuran-2-carbonyl)pyrrolidin-3-yl)piperidin-2-onetrifluoroacetate], for which the IC50 (Examples 156-162, n-value in brackets, IC50's or percent inhibition at 300 nM, read-out: DPP-IV inhibition) is 212 nM.

Take `N[C@H]1CN(c2ncnc3c2ncn3C2CC2)C[C@@H]1N1CCCC1=O` [Example 151, 1-((3S,4S)-4-Amino-1-(9-cyclopropyl-9H-purin-6-yl)pyrrolidin-3-yl)pyrrolidin-2-one hydrochloride]: the IC50 under setting [1] was over 3000 nM. The same measure, in the same setting: in the case of `COc1cc2c(cc1OC)CN(c1cc(N3C[C@H](N)[C@@H](N4CCCC4=O)C3)ncn1)CC2` [Example 60, 1-((3S,4S)-4-Amino-1-(6-(3,4-dihydro-6,7-dimethoxyisoquinolin-2(1H)-yl)pyrimidin-4-yl)pyrrolidin-3-yl)pyrrolidin-2-onehydrochloride] it was 1260 nM; in that of `CS(=O)(=O)c1ccccc1S(=O)(=O)Oc1ccc2c(N3C[C@H](N)[C@@H](N4CC(F)(F)CCC4=O)C3)ncnc2c1` [Example 97, 4-((3S,4S)-3-amino-4-(5,5-difluoro-2-oxopiperidin-1-yl)pyrrolidin-1-yl)quinazolin-7-yl 2-(methylsulfonyl)benzenesulfonate], under 1 nM. For `N[C@H]1CN(c2cc(-c3ccc(O)nc3)ncn2)C[C@@H]1N1CCCCC1=O` [Example 8, 1-{(3S,4S)-4-Amino-1-[6-(6-hydroxy-pyridin-3-yl)pyrimidin-4-yl]-pyrrolidin-3-yl}-piperidin-2-one], under setting [1], the IC50 worked out at 27.1 nM. The same measure, in the same setting: under `N[C@H]1CN(c2ncnc3cc(Oc4cccc(F)c4)ccc23)C[C@@H]1N1CCCCC1=O` [Example 120, 1-((3S,4S)-4-amino-1-(7-(3-fluorophenoxy)quinazolin-4-yl)pyrrolidin-3-yl)piperidin-2-oneformate] stands 79.8 nM; under `N[C@H]1CN(c2ncnc3cc(Oc4ccc(C(F)(F)F)cn4)ccc23)C[C@@H]1N1CCCCC1=O` [Example 127, 1-((3S,4S)-4-amino-1-(7-(5-(trifluoromethyl)pyridin-2-yloxy)quinazolin-4-yl)pyrrolidin-3-yl)piperidin-2-one], 137 nM. Same read-out and setting: under `N[C@H]1CN(c2ncnc(N3CCc4nocc4C3)c2F)C[C@@H]1N1CCCCC1=O` [Example 79, 1-((3S,4S)-4-amino-1-(6-(6,7-dihydroisoxazolo[4,3-c]pyridin-5(4H)-yl)-5-fluoropyrimidin-4-yl)pyrrolidin-3-yl)piperidin-2-one] stands 61.7 nM.

As to `N[C@H]1CN(c2ncnc(N3CCC(F)(F)C3)n2)C[C@@H]1N1CCCCC1=O` [Example 11, 1-{(3S,4S)-4-Amino-1-[4-(3,3-difluoro-pyrrolidin-1-yl)-[1,3,5]triazin-2-yl]-pyrrolidin-3-yl}-piperidin-2-onedihydrochloride], the IC50 under setting [1] came out at 37.4 nM. Still for that read-out and setting: in the case of `N[C@H]1CN(c2cc(N3CCC(F)(F)C3)ncn2)C[C@@H]1N1CCCC1=O` [Example 12, 1-((3S,4S)-4-Amino-1-(6-(3,3-difluoropyrrolidin-1-yl)pyrimidin-4-yl)pyrrolidin-3-yl)pyrrolidin-2-onedihydrochloride] it was 522 nM; in that of `N[C@H]1CN(C(=O)c2cc3cc(Cl)ccc3o2)C[C@@H]1N1CC(F)(F)CCC1=O` [Example 153, 1-((3S,4S)-4-amino-1-(5-chlorobenzofuran-2-carbonyl)pyrrolidin-3-yl)-5,5-difluoropiperidin-2-one], 78.6 nM. Take `CC(C)C(C)Oc1cc(N2C[C@H](N)[C@@H](N3CCCCC3=O)C2)ncn1` (stereo partly drawn) [Example 95, 1-((3S,4S)-4-Amino-1-(6-(3-methylbutan-2-yloxy)pyrimidin-4-yl)pyrrolidin-3-yl)piperidin-2-one trifluoroacetate]: the inhibition at 0.3 µM under setting [2] turned out to be 17.7%. For the compound `N[C@H]1CN(c2ncnc3cc(C(F)(F)F)ccc23)C[C@@H]1N1CCCCC1=O` [Example 110, 1-((3S,4S)-4-amino-1-(7-(trifluoromethyl)quinazolin-4-yl)pyrrolidin-3-yl)piperidin-2-one], under setting [1], the IC50 stood at 47.2 nM. Same read-out and setting: under `N[C@H]1CN(c2cc(NC3CC3)ncn2)C[C@@H]1N1CCCCC1=O` [Example 73, 1-[(3S,4S)-4-Amino-1-(6-cyclopropylamino-pyrimidin-4-yl)-pyrrolidin-3-yl]-piperidin-2-onedihydrochloride] stands 74.2 nM; under `N[C@H]1CN(c2ncnc3cc(OCc4ccccc4)ccc23)C[C@@H]1N1CCCCC1=O` [Example 114, 1-((3S,4S)-4-amino-1-(7-(benzyloxy)quinazolin-4-yl)pyrrolidin-3-yl)piperidin-2-one], 109 nM.
